Test results as given in US7148228B2, “Pyrazolopyrimidines and related analogs as HSP90-inhibitors” (Conforma Therapeutics Corporation, priority 2003, dated 2006).

Legend:
HER2/Neu protein = assay: HER2 degradation assay; assay type: cell-based; conditions: Homo sapiens; 50% degradation of HER2/Neu protein, MCF7 cells, 16 h incubation
Description: MCF7 breast carcinoma cells (ATCC) were grown in Dulbecco's modified Eagle's medium (DMEM) containing 10% fetal bovine serum (FBS) and 10 mM HEPES, and plated in 24 well plates (50% confluent). Twenty-four hrs later (cells are 65–70% confluent), test compounds were added and incubated overnight for 16 h. […] The wells were washed with 1 mL phosphate buffered saline (PBS), and 200 μL trypsin was added to each well. After trypsinization was complete, 50 μL of FBS was added to each well. Then 200 μL cells was transferred to 96 well plates. The cells were pipetted up and down to obtain a single cell suspension. The plates were centrifuged at 2,500 rpm for 1 min using a Sorvall Legend RT™ tabletop centrifuge (Kendro Laboratory Products, Asheville, N.C.). The cells were then washed once in PBS containing 0.2% BSA and 0.2% sodium azide (BA buffer). Phycoerythrin (PE) conjugated anti HER2/Neu antibody (Becton Dickinson, #340552), or PE conjugated anti-keyhole limpet hemacyanin [KLH] (Becton Dickinson, #340761) control antibody was added at a dilution of 1:20 and 1:40 respectively (final concentration was 1 μg/mL) and the cells were pipeted up and down to form a single cell suspension, and incubated for 15 mins. The cells were washed twice with 200 μL BA buffer, and resuspended in 200 μL BA buffer, and transferred to FACSCAN tubes with an additional 250 μL BA buffer. Samples were analyzed using a FACSCalibur™ flow cytometer (Becton Dickinson, San Jose, Calif.) equipped with Argon-ion laser that emits 15 mW of 488 nm light for excitation of the PE fluorochrome. 10,000 events were collected per sample. A fluorescence histogram was generated and the mean fluorescence intensity (MFI) of each sample was determined using Cellquest software. The background was defined as the MFI generated from cells incubated with control IgG-PE, and was subtracted from each sample stained with the HER2/Neu antibody. Cells incubated with DMSO was always done as untreated controls since the compounds were resuspended in DMSO. Percent degradation of HER2 was calculated as follows: % HER2 degraded=[(MFI untreated cells−MFI treated cells)/MFI untreated cell]×100
IC50 is defined as the concentration at which there was 50% degradation of the HER2/Neu protein.

[1] = test system: MCF7 breast carcinoma cells; assay: MTS assay; assay type: cell-based; conditions: Homo sapiens, concentration giving 50% viable cell number
Description: MTS assays measures the cytotoxicity of geldanamycin derivatives. MTS (3-(4,5-dimethylthiazol-2-yl)-5-(3-carboxymethoxyphenyl)-2-(4-sulfophenyl)-2H-tetrazolium is a tetrazolium dye that is converted to a formazan product by dehydrogenase enzymes of metabolically active cells (Corey, A. et al. “Use of an aqueous soluble tetrazolium/formazan assay for cell growth assays in culture,” Cancer Commun. 1991, 3, 207–212). Cells were seeded in 96 well plates at 2000 cells/well and allowed to adhere overnight in Dulbecco's modified Eagle's medium supplemented with 10% fetal bovine serum. The final culture volume was 100 μl. Viable cell number was determined by using the Celltiter 96 AQueous Non-radioactive Cell Proliferation Assay (Promega, Madison Wis.). The MTS/PMS (phenazine methosulfate) solution was mixed at a ratio of 20:1, and 20 μL was added per well to 100 μl of culture medium. After 2–4 hours, the formation of the formazan product was measured at 490 nm absorbance using a multiwell plate spectrophotometer. Background was determined by measuring the Abs 490 nm of cell culture medium and MTS-PMS in the absence of cells and was subtracted from all values. Percent viable cells was calculated as follows: % viable cells=(Abs at 490 nm treated cells/Abs at 490 nm untreated cells)×100
The effect of selected compounds of the invention on MCF7 breast carcinoma cells according to the MTS assay is summarized in Table 2. IC50 was defined as the concentration of the compound which gave rise to 50% viable cell number.

[2] = test system: rHSP90 in the MCF7 cell lysates; assay: Cell lysate binding assay (biotin-GM competition); conditions: concentration for 50% inhibition of biotin-GM binding to rHSP90 in MCF7 cell lysates
Description: MCF7 breast carcinoma cell lysates were prepared by douncing in lysing buffer (20 mM HEPES, pH 7.3, 1 mM EDTA, 5 mM MgCl2, 100 mM KCl), and then incubated with or without test compound for 30 mins at 4° C., followed by incubation with biotin-GM linked to BioMag™ streptavidin magnetic beads (Qiagen) for 1 hr at 4° C. The tubes were placed on a magnetic rack, and the unbound supernatant removed. The magnetic beads were washed three times in lysis buffer and boiled for 5 mins at 95° C. in SDS-PAGE sample buffer. Samples were analyzed on SDS protein gels, and Western blots done for rHSP90. Bands in the Western Blots were quantitated using the Bio-rad Fluor-S MultiImager, and the % inhibition of binding of rHSP90 to the biotin-GM was calculated.
The IC50 reported is the concentration of test compound needed to achieve 50% inhibition of the biotin-GM binding to rHSP90 in the MCF7 cell lysates.

Row | Structure (SMILES) | IC50 (HER2/Neu protein) | IC50 [1] | IC50 [2]
1 | COc1c(C)cnc(Cn2ncc3c(Cl)nc(N)nc32)c1C [Example 7, 4-Chloro-1-(4-methoxy-3,5-dimethyl-pyridin-2-ylmethyl)-1H-pyrazolo[3,4-d]pyrimidin-6-ylamine] | 0.05 µM | 0.13 µM | 0.14 µM
2 | COc1c(C)c(Cl)nc(Cn2ncc3c(Cl)nc(N)nc32)c1C [Example 8, 4-Chloro-1-(6-chloro-4-methoxy-3,5-dimethyl-pyridin-2-ylmethyl)-1H-pyrazolo[3,4-d]pyrimidin-6-ylamine] | 0.14 µM | 0.5 µM | –
3 | Cc1cnc(Cn2ncc3c(Cl)nc(N)nc32)c(C)c1Cl [Example 9, 4-Chloro-1-(4-chloro-3,5-dimethyl-pyridin-2-ylmethyl)-1H-pyrazolo[3,4-d]pyrimidin-6-ylamine] | 0.09 µM | 0.3 µM | –
4 | Cc1cnc(Cn2ncc3c(Cl)nc(N)nc32)c(C)c1Br [Example 14, 1-(4-Bromo-3,5-dimethyl-pyridin-2-ylmethyl)-4-chloro-1H-pyrazolo[3,4-d]pyrimidin-6-ylamine] | 0.09 µM | 1 µM | 0.11 µM
5 | Cc1c[n+]([O-])c(Cn2ncc3c(Cl)nc(N)nc32)c(C)c1Br [Example 15, 1-(4-Bromo-3,5-dimethyl-1-oxy-pyridin-2-ylmethyl)-4-chloro-1H-pyrazolo[3,4-d]pyrimidin-6-ylamine] | 0.9 µM | – | –
6 | COc1c(C)cnc(Cn2nc(C)c3c(Cl)nc(N)nc32)c1C [Example 23, 4-Chloro-1-(4-methoxy-3,5-dimethyl-pyridin-2-ylmethyl)-3-methyl-1H-pyrazolo[3,4-d]pyrimidin-6-ylamine] | 0.04 µM | 0.1 µM | –
7 | Cc1c[n+]([O-])c(Cn2nc(C)c3c(Cl)nc(N)nc32)c(C)c1Br [Example 24, 1-(4-Bromo-3,5-dimethyl-1-oxy-pyridin-2-ylmethyl)-4-chloro-3-methyl-1H-pyrazolo[3,4-d]pyrimidin-6-ylamine] | 0.03 µM | 1 µM | –
8 | Cc1c[n+]([O-])c(Cn2nc(C)c3c(Cl)nc(N)nc32)c(C)c1Cl [Example 25, 4-Chloro-1-(4-chloro-3,5-dimethyl-1-oxy-pyridin-2-ylmethyl)-3-methyl-1H-pyrazolo[3,4-d]pyrimidin-6-ylamine] | 0.03 µM | 0.3 µM | –
9 | Cc1cnc(Cn2nc(C)c3c(Cl)nc(N)nc32)c(C)c1Cl [Example 26, 4-Chloro-1-(4-chloro-3,5-dimethyl-pyridin-2-ylmethyl)-3-methyl-1H-pyrazolo[3,4-d]pyrimidin-6-ylamine] | 0.05 µM | – | 0.09 µM
10 | Cc1cnc(Cn2nc(C)c3c(Cl)nc(N)nc32)c(C)c1Br [Example 28, 1-(4-Bromo-3,5-dimethyl-pyridin-2-ylmethyl)-4-chloro-3-methyl-1H-pyrazolo[3,4-d]pyrimidin-6-ylamine] | 0.04 µM | 1 µM | –
11 | CCc1nn(Cc2ncc(C)c(OC)c2C)c2nc(N)nc(Cl)c12 [Example 29, 4-Chloro-3-ethyl-1-(4-methoxy-3,5-dimethyl-pyridin-2-ylmethyl)-1H-pyrazolo[3,4-d]pyrimidin-6-ylamine] | 0.85 µM | 1 µM | 0.1 µM
12 | CCc1nn(Cc2ncc(C)c(Cl)c2C)c2nc(N)nc(Cl)c12 [Example 30, 4-Chloro-1-(4-chloro-3,5-dimethyl-pyridin-2-ylmethyl)-3-ethyl-1H-pyrazolo[3,4-d]pyrimidin-6-ylamine] | 0.11 µM | 1 µM | –
13 | COc1c(C)cnc(Cn2nc(C(C)C)c3c(Cl)nc(N)nc32)c1C [Example 31, 4-Chloro-3-isopropyl-1-(4-methoxy-3,5-dimethyl-pyridin-2-ylmethyl)-1H-pyrazolo[3,4-d]pyrimidin-6-ylamine] | 0.05 µM | 0.3 µM | –
14 | COc1c(C)cnc(Cn2nc(-c3ccccc3)c3c(Cl)nc(N)nc32)c1C [Example 32, 4-Chloro-1-(4-methoxy-3,5-dimethyl-pyridin-2-ylmethyl)-3-phenyl-1H-pyrazolo[3,4-d]pyrimidin-6-ylamine] | 0.04 µM | 0.08 µM | –
15 | Cc1cnc(Cn2nc(-c3ccccc3)c3c(Cl)nc(N)nc32)c(C)c1Cl [Example 33, 4-Chloro-1-(4-chloro-3,5-dimethyl-pyridin-2-ylmethyl)-3-phenyl-1H-pyrazolo[3,4-d]pyrimidin-6-ylamine] | 0.16 µM | 0.6 µM | –
16 | Cc1cnc(Cn2nc(-c3ccccc3)c3c(Cl)nc(N)nc32)c(C)c1Br [Example 34, 1-(4-Bromo-3,5-dimethyl-pyridin-2-ylmethyl)-4-chloro-3-phenyl-1H-pyrazolo[3,4-d]pyrimidin-6-ylamine] | 0.12 µM | 1 µM | –
17 | Cc1c[n+]([O-])c(Cn2nc(-c3ccccc3)c3c(Cl)nc(N)nc32)c(C)c1Cl [Example 35, 4-Chloro-1-(4-chloro-3,5-dimethyl-1-oxy-pyridin-2-ylmethyl)-3-phenyl-1H-pyrazolo[3,4-d]pyrimidin-6-ylamine] | 0.02 µM | 1 µM | 0.08 µM
